BindingDB's records for doi:10.1016/j.ejmech.2021.113298 (Chung-Ang University, 2021)

Experiment: Inhibition of CSF1R in mouse MNFS-60 cells assessed as reduction in CSF-induced cell viability after 48 hrs by Ez-cytox reagent based assay

Q: For FC(F)(F)c1ccc(CNc2ccc(Cc3c[nH]c4ncc(Cl)cc34)cn2)cn1, which IC50 is on record?
A: 14 nM

Q: With CCN1CCN(Cc2ccc(C(=O)Nc3ccc(C)c(NCc4cnc5cccnn45)c3)cc2C(F)(F)F)CC1 as the compound, how does the IC50 read?
A: 660 nM

Q: Which IC50 does the source give for CCN1CCN(Cc2ccc(C(=O)Nc3ccc(C)c(NCc4cnc5ccc(OC)nn45)c3)cc2C(F)(F)F)CC1 here?
A: 406 nM

Q: For CCN1CCN(Cc2ccc(NC(=O)c3ccc(C)c(NC(=O)c4cnc5cccnn45)c3)cc2C(F)(F)F)CC1, which IC50 is on record?
A: 122 nM

Q: With CCN1CCN(Cc2ccc(C(=O)Nc3ccc(C)c(NC(=O)c4cnc5cccnn45)c3)cc2C(F)(F)F)CC1 as the compound, how does the IC50 read?
A: 178 nM

Q: With CCN1CCN(Cc2ccc(C(=O)Nc3ccc(C)c(NC(=O)c4cnnc5ccccc45)c3)cc2C(F)(F)F)CC1 as the compound, how does the IC50 read?
A: 1600 nM

Q: Which IC50 does the source give for CCN1CCN(Cc2ccc(C(=O)Nc3ccc(C)c(NC(=O)c4cnc5ccccn45)c3)cc2C(F)(F)F)CC1 here?
A: 149 nM

Q: With CCN1CCN(Cc2ccc(C(=O)Nc3ccc(C)c(NC(=O)c4cnn5ccccc45)c3)cc2C(F)(F)F)CC1 as the compound, how does the IC50 read?
A: 91 nM

Q: Which IC50 does the source give for CCN1CCN(Cc2ccc(C(=O)Nc3ccc(C)c(NC(=O)c4cnc5ncccn45)c3)cc2C(F)(F)F)CC1 here?
A: 4170 nM

Q: Which IC50 does the source give for CCN1CCN(Cc2ccc(C(=O)Nc3ccc(C)c(NC(=O)c4n[nH]c5ccccc45)c3)cc2C(F)(F)F)CC1 here?
A: 1580 nM

Q: For CCN1CCN(Cc2ccc(C(=O)Nc3ccc(C)c(NC(=O)c4n[nH]c5ncccc45)c3)cc2C(F)(F)F)CC1, which IC50 is on record?
A: 254 nM

Q: For CCN1CCN(Cc2ccc(C(=O)Nc3ccc(C)c(NC(=O)c4cc[nH]n4)c3)cc2C(F)(F)F)CC1, which IC50 is on record?
A: 4720 nM

Q: For CCN1CCN(Cc2ccc(C(=O)Nc3ccc(C)c(NC(=O)c4ccn(C)n4)c3)cc2C(F)(F)F)CC1, which IC50 is on record?
A: 5150 nM

Q: Which IC50 does the source give for CCN1CCN(Cc2ccc(C(=O)Nc3ccc(C)c(NC(=O)c4c[nH]cn4)c3)cc2C(F)(F)F)CC1 here?
A: 5430 nM

Q: For CCN1CCN(Cc2ccc(C(=O)Nc3ccc(C)c(NC(=O)c4ncc[nH]4)c3)cc2C(F)(F)F)CC1, which IC50 is on record?
A: 5780 nM

Q: For Cc1ccc(NC(=O)c2ccc(C(F)(F)F)nc2)cc1NC(=O)c1cnc2cccnn12, which IC50 is on record?
A: > 10000 nM

Q: With Cc1ccc(NC(=O)c2ccc(C(F)(F)F)nc2)cc1NC(=O)c1cnc2ccccn12 as the compound, how does the IC50 read?
A: 25 nM

Q: With Cc1ccc(NC(=O)c2ccc(C(F)(F)F)nc2)cc1NC(=O)c1cnn2ccccc12 as the compound, how does the IC50 read?
A: 27 nM

Q: With Cc1ccc(NCc2ccc(C(F)(F)F)nc2)cc1NC(=O)c1cnc2cccnn12 as the compound, how does the IC50 read?
A: > 10000 nM

Q: Which IC50 does the source give for Cc1ccc(NCc2ccc(C(F)(F)F)nc2)cc1NC(=O)c1cnc2ccccn12 here?
A: 3150 nM

Q: With Cc1ccc(NCc2ccc(C(F)(F)F)nc2)cc1NC(=O)c1cnn2ccccc12 as the compound, how does the IC50 read?
A: 5770 nM

Q: Which IC50 does the source give for Cc1cn(-c2cc(NC(=O)c3ccc(C)c(NC(=O)c4cnc5cccnn45)c3)cc(C(F)(F)F)c2)cn1 here?
A: 1820 nM

Q: With Cc1cn(-c2cc(NC(=O)c3ccc(C)c(NC(=O)c4cnc5ccccn45)c3)cc(C(F)(F)F)c2)cn1 as the compound, how does the IC50 read?
A: 486 nM

Q: For CNC(=O)c1cc(Oc2ccc3nc(N[C@H]4CCCC[C@H]4O)sc3c2)ccn1, which IC50 is on record?
A: 245 nM

Q: With Cc1cn(-c2cc(NC(=O)c3ccc(C)c(Nc4nccc(-c5cccnc5)n4)c3)cc(C(F)(F)F)c2)cn1 [AMN 107] as the compound, how does the IC50 read?
A: 534 nM
